According to patent publication US20230321053A1, “(1R,3S)-3-((5-CYANO-4-PHENYLTHIAZOL-2-YL)CARBAMOYL)CYCLOPENTANE-1-CARBOXYLIC ACID AND DERIVATIVES THEREOF FOR USE IN THE TREATMENT OF AIRWAY DISEASES” (PALOBIOFARMA, S.L., priority 2020, published 2023):

Legend:
[1] = system: allergic/atopic asthmatics; assay: Safety / adverse events, phase II study; assay type: in vivo, human; conditions: safety population
Experimental: (§1) The present trial is an exploratory study aiming at evaluating the safety, tolerability, and efficacy of a 15-day, once daily administration of 10 mg Compound (I) in subjects with persistent mild-to-moderate atopic asthma. In terms of exploratory efficacy, the primary purpose of this study is to determine whether Compound (I) compared to placebo, improves the FEV1, as well as to provide comparative safety data from this population of asthmatics. Measurements made in this study will also be used to establish whether this treatment improves other variables related to asthma control and lung function.
Of the 107 subjects who were screened, 63 (58.9%) met eligibility criteria and were randomized. Of the 63 patients who were randomized, 63 (100%) completed the study (32 and 31 in the Compound (l) and placebo groups, respectively). There were not adverse events for discontinuation. The safety population included 63 (placebo: n=31 and Compound (l): n=32). Results are based on the per protocol population (placebo: n= 27 and Compound (l): n= 31).
The data highlight the potential of the adenosine A1 receptor antagonist Compound (l) as a promising oral asthma therapy. The safety set included all randomized patients who received at least one dose of any study drug.

[2] = system: patients with mild-to-moderate persistent atopic asthma; assay: Trough FEV1 (spirometry), phase II placebo-controlled study; assay type: in vivo, human; conditions: for FEV1 LS means difference vs Placebo, Eosinophils category High, Estimate (SE): eosinophils High at V1, p 0.0164; for FEV1 LS means difference vs Placebo, Eosinophils category Low, Estimate (SE): eosinophils Low at V1, p 0.7778
Experimental: (§2) Eosinophils in S.I units (10^9/L) will be converted in cel/µL with the conversion factor 1 × 10^9/L =1000 cel/µL. The primary efficacy analysis on Per Protocol Population was stratified into 2 subgroups based on Eosinophils (cel/ µL) value at visit V1 from Hematology (Low < 300 cel/ µL, and High >=300 cel/ µL). Trough FEV1 on day 16 (+4-day leeway) was summarized by treatment arm and Eosinophils value at visit V1. A mixed model with FEV1 measurements on day 16 (23 h 15 min and 23 h 45 min post-dose), containing treatment arm and Eosinophils strata as fixed effects, site as random effect with baseline FEV1 on visit V5 as a covariate was fitted.
(§3) FEV1. Briefly. Spirometry measurements will be performed using spirometry equipment which meets or exceeds the minimal performance recommendations of the ATS/ERS standards (Miller M. R et al, Standardisation of spirometry, Eur Respir J 2005; 26: 319-338). Calibration and quality control should be performed before the site initiation: • a. A 3L syringe will be used to verify spirometer accuracy. • b. The accuracy of the syringe should be certified within the last 12 months and should have an accuracy of ± 15 ml. • c. Before use, the syringe should be maintained at the same temperature as the spirometer to ensure volume stability. • d. For volume-type spirometers, a calibration and leak check must be performed before each testing session according to the manufacturer’s guidelines. A calibration report stored in the site’s source documents is required to confirm the adherence to guidelines. Example of spirometry equipment used in the trial: Jaeger and ERT Spirosphere.
as §1
(§4) A phase II, double-blind, randomized, parallel-group, placebo-controlled multi-center study to investigate the effect of the adenosine A1 receptor antagonist Compound (I) on forced expiratory volume in 1 second (FEV1) in patients with mild-to-moderate persistent atopic asthma.
(§5) Secondary objectives include determinations of FEV1 area under the curve (AUC), evaluations on pre- and post- bronchodilator FEV1, and patient reported outcomes (PROs) including Asthma Control Questionnaire-7 (ACQ-7) and Standardized Asthma Quality of Life Questionnaire (AQLQ(S)).
A mixed model with FEV1 measurements on day 16 (23 h 15 min and 23h 45 min post-dose), containing treatment arm as a fixed effect, site as random effect with baseline FEV1 on visit V5 as a covariate was fitted. The treatment effect was larger for Compound (l) group compared to placebo, increasing the FEV1 on 180 mL (p= 0.0816).
FEV1: forced expiratory volume in 1 second; SD: standard deviation; SE: standard error; min: minimum; max: maximum; LS: least squares; Cl: confidence interval. Trough FEV1 on day 16 (+4-day leeway), defined as the average of the FEV1 measurements taken at 23 h15 min and 23 h45 min post-dose.

[3] = system: patients with mild-to-moderate persistent atopic asthma; assay: Peripheral blood eosinophil count, phase II placebo-controlled study; assay type: in vivo, human; conditions: 10 mg once daily
Source text: Eosinophil count. Peripheral blood eosinophil counts were obtained from standard complete blood counts done at every centre participating in the study. For example, by using standardized methods on a Beckman Coulter LH series analyzer (Beckman Coulter Ltd, Brea, CA, USA), Negewo, N. A. et al, Peripheral blood eosinophils: a surrogate marker for airway eosinophilia in stable COPD, Int J Chron Obstruct Pulmon Dis. 2016; 11: 1495-1504).
as §2, §1, §4
The study comprises: (i) a minimum of 5-days screening period, during which the subject’s clinical stability and overall eligibility for the study will be assessed; (ii) a weaning phase where a stepwise tapering of the asthma medication will be done upon 7-day periods; (iii) the randomized, parallel-arm treatment period; and (iv) an end-of-study follow-up visit. The asthma medication weaning period comprises three possible visit pathways in order to adjust for each subject’s asthma therapy on study entry. The study comprises a primary analysis population of 58 stable asthmatic subjects managed as described for the objectives, who meet all inclusion criteria and no exclusion criteria and complete a full, valid data set for the primary variable.

[4] = system: patients with mild-to-moderate persistent atopic asthma; assay: FEV1 AUC30min-23h30min post-dose, phase II study; assay type: in vivo, human
Source text: as §3, §5

[5] = system: patients with mild-to-moderate persistent atopic asthma; assay: Asthma Control Questionnaire-7 (ACQ-7), phase II study; assay type: in vivo, human; conditions: mixed model, days 8 and 15, effect: treatment; p 0.0430
Source text: as §5
Table 7 and FIG. 5. Similar trend was observed when comparing Visit and Study Arm* Visit as covariate.

[6] = system: TNFalpha; conditions: rat; cited from earlier work
[7] = system: Brown Norway rats; conditions: orally administered, antigen induced; cited from earlier work
[8] = system: chronic obstructive pulmonary disease; conditions: 16-week trial; cited from earlier work
[9] = system: COPD patients; conditions: baseline sputum eosinophils ≥3%; cited from earlier work
[10] = system: COPD patients; conditions: raised baseline eosinophils; cited from earlier work
[11] = change from baseline, 10 mg, N=31

With `N#Cc1sc(NC(=O)[C@H]2CC[C@@H](C(=O)O)C2)nc1-c1ccccc1` [Compound (I), (1R,3S)-3-((5-cyano-4-phenylthiazol-2-yl)carbamoyl)cyclopentane-1-carboxylic acid] the serious adverse events ([1]; 10 mg once daily 15 days) was “no serious AEs reported”, the “severity of most adverse events” value ([1]; both groups) was “mild/moderate” and the “increase of trough FEV1” value [2] was 110 to 200 mL. The “Trough FEV1 day 16 (+4-day leeway), LS mean” value ([2]; 10 mg once daily 15 days, N=31, baseline mean 2.7) was 3.1 L, the “Trough FEV1 day 16 (+4-day leeway), LS mean difference vs. Placebo” value ([2]; 10 mg once daily 15 days, p 0.0816) was 0.18 L and the “FEV1 LS means difference vs Placebo, Eosinophils category High, Estimate (SE)” value [2] was 0.38 L. For the same molecule, the “FEV1 LS means difference vs Placebo, Eosinophils category High, Estimate (SE)” value ([2]; listed as COMPOUND (I)) was 0.38 (0.15) L, the “FEV1 LS means difference vs Placebo, Eosinophils category Low, Estimate (SE)” value [2] was 0.04 L and the “FEV1 LS means difference vs Placebo, Eosinophils category Low, Estimate (SE)” value ([2]; listed as COMPOUND (I)) was 0.04 (0.15) L. The “FEV1 LS means differences in study arm vs Placebo, Estimate (SE)” value ([2]; mixed model with eosinophils strata, p 0.0596) was 0.21 (0.11) L, the “FEV1 LS means, Estimate (SE), Eosinophils category High” value ([2]; mixed model, trough FEV1 day 16, eosinophils High at visit V1, per protocol) was 3.06 (0.11) L and the “FEV1 LS means, Estimate (SE), Eosinophils category Low” value ([2]; mixed model, trough FEV1 day 16, eosinophils Low at visit V1, per protocol) was 3.04 (0.12) L. For the same molecule, the “treatment effect, increase of FEV1 compared to placebo” value ([2]; trough FEV1 day 16, mixed model, p= 0.0816) was 180 mL, the “Eosinophilic Count on Visit V7 (day 15), Mean” value ([3]; 15 days, per protocol population, N=30, baseline mean 392.9) was 218 cel/ µL and the “Eosinophilic Count on Visit V7 (day 15), Median” value ([3]; 15 days, per protocol population, N=30, baseline median 370.0) was 150.0 cel/ µL. For the same molecule, the “Eosinophilic Count, Absolute Change from Baseline, Mean difference vs Placebo (90% Cl)” value ([3]; day 15) was -233.9 (-Inf, -174.6) cel/ µL, the “Eosinophilic Count, Relative Change from Baseline, Mean difference vs Placebo (90% Cl)” value ([3]; day 15, p-value <0.0001) was -68.0 (-Inf, -51.95) and the “Eosinophilic Count, Absolute Change from Baseline, Mean” value ([3]; day 15 vs visit V5) was -184.7 cel/ µL. The “Eosinophilic Count, Absolute Change from Baseline, Median” value ([3]; day 15 vs visit V5) was -195.0 cel/ µL, the “Eosinophilic Count, Relative Change from Baseline, Mean” value ([3]; day 15 vs visit V5) was -46.8 and the “Eosinophilic Count, Relative Change from Baseline, Median” value ([3]; day 15 vs visit V5) was -64.9. For the same molecule, the “FEV1 AUC30min-23h30min post-dose through days 15-to-16, Mean” value [4, 11] was 4.9, the “FEV1 AUC30min-23h30min post-dose through days 15-to-16, Median” value [4, 11] was 5.7 and the “FEV1 AUC30min-23h30min post-dose through days 15-to-16, Mean difference vs Placebo (90% Cl)” value ([4]; p 0.0435) was 3.6 (0.96). The “ACQ-7 overall score, Mean difference vs Placebo (90% Cl)” value [5] was -0.28.

In the case of `O=C(Nc1c(Cl)cncc1Cl)c1ccc(OC(F)F)c(OCC2CC2)c1` [Roflumilast], the “LPS-induced circulating TNFalpha” value [6] is given as “abrogated”, the “bronchoalveolar lavage fluid (BALF) eosinophilia” value [7] is given as “inhibited” and the blood eosinophils [8] is given as “not in the blood eosinophils”. The “eosinophils in sputum and bronchial biopsy samples” value [8] was “significant reduction”.

In the case of “benralizumab: humanized, afucosylated, monoclonal antibody targeting the IL5-receptor α-chain”, the “improvements in exacerbation rates, SGRQ-C, CRQ-SAS scores and FEV1” value [9] is given as “not statistically significant”.

B1: mepolizumab: anti-IL-5 monoclonal antibody (antibody, chains of the INN, looked up, V domains shown)
VH: QVTLRESGPALVKPTQTLTLTCTVSGFSLTSYSVHWVRQPPGKGLEWLGVIWASGGTDYNSALMSRLSISKDTSRNQVVLTMTNMDPVDTATYYCARDPPSSLLRLDYWGRGTPVTVSS
VL: DIVMTQSPDSLAVSLGERATINCKSSQSLLNSGNQKNYLAWYQQKPGQPPKLLIYGASTRESGVPDRFSGSGSGTDFTLTISSLQAEDVAVYYCQNVHSFPFTFGGGTKLEIK
In the case of B1, the “sputum and blood eosinophil counts compared with placebo” value [10] is listed as “significantly reduced”.
